Laboratory results published in US4003887A, “Novel penicillins and their preparation” (Sumitomo Chemical Company, Limited, priority 1972, dated 1977).
Converted amounts (≈) assume the structure as drawn.

Columns and labels:
Proteus miravilis GN2425 = test: Minimal inhibitory concentration, agar dilution method; format: cell-based
Escherichia coli NIHJ = test: as above; format: cell-based
Excerpt: (§1) When determined according to the agar dilution method, the penicillins (I) afford the minimal inhibitory concentrations against test microorganisms as shown in Table 2.

[1] = system: Pseudomonas aeruginosa 104; test: as above; format: cell-based
Excerpt: as §1

[2] = system: Klebsiella pneumoniae PC1602; test: as above; format: cell-based
Excerpt: as §1

[3] = system: Staphylococcus aureus 209P; test: as above; format: cell-based
Excerpt: as §1

[4] = system: gram-positive and gram-negative bacteria; settings: literature, words; cited from earlier work
Pseudomonas = settings: literature, words; cited from earlier work

Row | Molecule | MIC (Proteus miravilis GN2425) [µg/mL] | MIC (Escherichia coli NIHJ) [µg/mL] | MIC [1] [µg/mL] | MIC [2] [µg/mL] | MIC [3] [µg/mL] | inhibition of growth of gram-positive and gram-negative bacteria [4] | antimicrobial activity against Pseudomonas (Pseudomonas)
1 | CC1(C)S[C@@H]2[C@H](NC(=O)[C@H](NC(=O)c3cnc4ccc(NC(=O)OCc5ccccc5)cc4c3O)c3ccc(O)cc3)C(=O)N2[C@H]1C(=O)O [Example 21] | 12.5 (≈ 18.2 µM) | 12.5 (≈ 18.2 µM) | 12.5 (≈ 18.2 µM) | 3.13 (≈ 4.56 µM) | 0.39 (≈ 0.569 µM) |  | 
2 | CC1(C)S[C@@H]2[C@H](NC(=O)[C@H](N)C3=CCC=CC3)C(=O)N2[C@H]1C(=O)O [Epicillin, 6-[α-amino-2-(1,4-hexadienylacetamido)]penicillanic acid] |  |  |  |  |  | inhibit the growth of various gram-positive and gram-negative bacteria | do not exert any appreciable antimicrobial activity against Pseudomonas
3 | 6-(α-amino-thienylacetamido)penicillanic acid |  |  |  |  |  | inhibit the growth of various gram-positive and gram-negative bacteria | do not exert any appreciable antimicrobial activity against Pseudomonas
4 | CC1(C)S[C@@H]2[C@H](NC(=O)C3(N)CCCCC3)C(=O)N2[C@H]1C(=O)O [Cyclacillin, 6-(1-amino-cyclohexane)carboxamidopenicillanic acid] |  |  |  |  |  | inhibit the growth of various gram-positive and gram-negative bacteria | do not exert any appreciable antimicrobial activity against Pseudomonas
5 | CC1(C)S[C@@H]2C(NC(=O)C(N)c3ccc(O)cc3)C(=O)N2[C@H]1C(=O)O (stereo partly drawn) [Amoxycillin, 6-(α-amino-p-hydroxyphenylacetamido)penicillanic acid] |  |  |  | > 200 |  | inhibit the growth of various gram-positive and gram-negative bacteria | do not exert any appreciable antimicrobial activity against Pseudomonas
